Reference: patent publication US20250270513A1, “METHOD FOR PRODUCING CULTURED TISSUE, AND PREPARATION FOR EXTERNAL APPLICATION” (National University Corporation Ehime University, priority 2019, published 2025)

Experiments:
[1] = test system: human normal skin keratinocytes on collagen gel containing normal human skin fibroblasts (NHDF); assay: Three-dimensional cultured skin on a sugar-containing dermal cell structure (Test Example 1); format: cell-based; details: 30 mg/mL sugar added instead of trehalose to collagen gel containing fibroblasts
Method: Subsequently, about 1 mL of the gel obtained was poured into a transwell-collagen coated insert (catalog number: 3492, manufactured by Costar; pore size: 3.0 μm, surface area: 4.67 cm^2), which is a cell culture insert, and allowed to stand in an incubator for 5 minutes or more. 5 mL of DMEM containing 10 v/v % FCS and 1 v/v % ABAM (Antibiotics-Antimycotic solution, 100×, manufactured by ThermoFisher Scientific Inc.) in which normal human skin fibroblasts (NHDF, manufactured by Cambrex Corporation) were suspended at a cell density of 5×10^5 cells/mL was added to 29 mL of the gel solution I. About 3.5 mL of a gel solution containing the cells was added to the cell culture insert, and the mixture was allowed to stand in a 37° C. incubator for 30 minutes to gel.
• (2) Next, the collagen gel (layered dermal cell structure) containing NHDF was pre-cultured for 5 days using a DMEM medium containing 50 μg/ml ascorbic acid, 10 v/v % FCS, and 1 v/v % ABAM. Next, human normal skin keratinocytes suspended in MCDB medium were seeded on the collagen gel surface so as to be 1.28×10^5 cells/cm^2, and a medium obtained by mixing equal amounts of MCDB Type-II medium (Growth Medium 2 in JP-B2-3066624) and EGM was added to an external liquid of the cell culture insert and the inside of the insert, followed by culturing at 37° C. for 2 days.
• (3) The medium was replaced with a cornification medium (CM medium), and the cell culture insert was placed such that a porous membrane of the cell culture insert was located at a gas-liquid interface of the cornification medium. In this state, the cells were subjected to gas-liquid interface culture at 37° C. for 7 to 14 days to induce differentiation, thereby obtaining three-dimensional cultured skin. The medium was replaced every two days from the start of the culture.

[2] = test system: EREG, ARG2, CCL2, IL1RN, PGF, SPP1, VEGFA, AREG and DPT mRNA; assay: qPCR of genes in monolayer fibroblasts, 24 hours (Test Example 3-3); format: cell-based, human; details: group treated with hyaluronic acid oligosaccharides (HA oligo)
Method: In the same manner as in Test Example 3-2, NHDF was cultured in 1% FCS and 1% ABAM-containing DMEM medium containing 0, 30, or 100 mg/mL trehalose or hyaluronic acid oligosaccharide 4mer (HA4) (product code 11006, manufactured by Cosmo Bio Co., Ltd.) for 24 hours, and RNA was recovered from the cells. Also, as a control, RNA was recovered from fibroblasts before treatment (0 h in FIG. 9). The obtained sample was subjected to the same operation as in Test Example 3-2, and qPCR for genes EREG, ARG2, CCL2, IL1RN, PGF, SPP1, VEGFA, AREG and DPT was performed. GAPDH was used as a reference gene.

Compound	formation of epithelial tissue layer [1]	increase in mRNA expression level of genes EREG, ARG2, CCL2, IL1RN, PGF, SPP1, VEGFA, AREG and DPT [2]
O=C(CO)[C@@H](O)[C@H](O)[C@H](O)CO [fructose, reference compound]	no epithelial tissue layer was formed	–
OC[C@H]1O[C@@](CO)(O[C@H]2O[C@H](CO)[C@@H](O)[C@H](O)[C@H]2O)[C@@H](O)[C@@H]1O [sucrose, reference compound]	no epithelial tissue layer was formed	–
hyaluronic acid oligosaccharide 4mer [hyaluronic acid oligosaccharides, reference compound]	–	not observed
